Source: patent US20130267494A1, “1,4-OXAZEPANE DERIVATIVES” (priority 2010, published 2013)
Where a name gives a salt, the structure may show the parent alone.

Assays:
Assay type in all cases: cell-based
[1] = target: T1, human serotonin transporter (Homo sapiens, UniProt P31645); assay: Inhibitory action on human serotonin transporter ([3H]-5-hydroxytryptamine uptake in CHO cells); conditions: relative to inhibitory activity of 10 μM Paroxetine as 100%; for inhibition at 1 µM / inhibition at 10 µM: CHO, read-out: inhibitory rate (%); for inhibition at 1 µM / inhibitory rate (%): compound 1 μM; for inhibition at 10 µM: compound 10 μM, CHO cells expressing human serotonin transporter
T1 construct: expressed in transfected cells
T1 sequence (P31645 whole entry): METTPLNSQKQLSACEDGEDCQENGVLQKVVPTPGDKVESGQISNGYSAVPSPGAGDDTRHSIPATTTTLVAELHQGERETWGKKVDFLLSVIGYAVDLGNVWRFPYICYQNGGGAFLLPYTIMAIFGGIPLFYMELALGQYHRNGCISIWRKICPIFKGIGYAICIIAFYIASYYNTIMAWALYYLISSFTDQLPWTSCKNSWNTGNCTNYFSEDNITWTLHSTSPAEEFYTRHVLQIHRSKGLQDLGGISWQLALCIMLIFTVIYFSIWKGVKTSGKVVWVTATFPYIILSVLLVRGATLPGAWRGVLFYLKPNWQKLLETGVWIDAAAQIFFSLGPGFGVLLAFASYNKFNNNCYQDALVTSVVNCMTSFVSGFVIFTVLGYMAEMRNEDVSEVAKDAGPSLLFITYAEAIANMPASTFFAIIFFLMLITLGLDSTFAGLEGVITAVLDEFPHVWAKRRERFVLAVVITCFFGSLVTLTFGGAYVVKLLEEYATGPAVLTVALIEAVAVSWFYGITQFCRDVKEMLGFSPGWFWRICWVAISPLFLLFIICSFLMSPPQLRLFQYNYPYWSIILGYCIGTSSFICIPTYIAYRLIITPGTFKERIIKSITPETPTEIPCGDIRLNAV
How it was run: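 CHO-K1 cells stably expressing human SERT, plated overnight, took up [3H]-5-HT (diluted to 200 nM before a 1:10 addition) for 20 min in HEPES-buffered saline with glucose and 0.5% BSA; radioactivity counted by scintillation. Compounds at 10 μM or 1 μM, activity expressed relative to 10 μM paroxetine set as 100%.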

[2] = target: T2, human norepinephrine transporter (Homo sapiens, UniProt P23975); assay: Inhibitory action on human norepinephrine transporter ([3H]-norepinephrine uptake in CHO cells); conditions: relative to inhibitory activity of 10 μM DMI as 100%; for inhibition at 1 µM / inhibition at 10 µM: CHO, read-out: inhibitory rate (%); for inhibition at 10 µM: compound 10 μM
T2 construct: expressed in transfected cells
T2 sequence (P23975 whole entry): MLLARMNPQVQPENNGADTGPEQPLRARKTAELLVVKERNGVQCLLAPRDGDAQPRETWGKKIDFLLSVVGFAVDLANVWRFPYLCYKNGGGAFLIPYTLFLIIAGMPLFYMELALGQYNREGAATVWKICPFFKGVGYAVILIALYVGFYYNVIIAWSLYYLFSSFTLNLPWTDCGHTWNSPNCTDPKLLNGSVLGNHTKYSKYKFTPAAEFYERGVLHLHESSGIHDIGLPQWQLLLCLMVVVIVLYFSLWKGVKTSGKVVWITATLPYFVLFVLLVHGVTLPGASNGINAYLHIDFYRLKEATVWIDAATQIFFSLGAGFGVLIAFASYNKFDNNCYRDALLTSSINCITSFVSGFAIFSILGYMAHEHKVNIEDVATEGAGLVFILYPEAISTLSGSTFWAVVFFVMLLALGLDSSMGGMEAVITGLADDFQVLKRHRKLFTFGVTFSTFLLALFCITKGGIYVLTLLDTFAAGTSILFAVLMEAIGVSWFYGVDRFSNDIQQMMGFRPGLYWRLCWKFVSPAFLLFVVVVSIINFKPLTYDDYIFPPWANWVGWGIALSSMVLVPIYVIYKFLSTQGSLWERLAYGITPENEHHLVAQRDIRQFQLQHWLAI
How it was run: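 Stably transfected CHO-K1 cells plated overnight, then given test compound and [3H]-norepinephrine (20 nM final, from 200 nM) in HEPES-buffered saline with 0.5% BSA for 45 min. After PBS washes, retained radioactivity counted by scintillation. Inhibition at 10 μM or 1 μM compound expressed relative to 10 μM DMI as 100%.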

[3] = target: T3, human dopamine transporter (Homo sapiens, UniProt Q01959); assay: Inhibitory action on human dopamine transporter ([3H]-dopamine uptake in CHO cells); conditions: relative to inhibitory activity of 100 μM Nomifensine as 100%; for inhibition at 1 µM / inhibition at 10 µM: CHO, read-out: inhibitory rate (%); for inhibition at 10 µM: compound 10 μM
T3 construct: expressed in transfected cells
T3 sequence (Q01959 whole entry): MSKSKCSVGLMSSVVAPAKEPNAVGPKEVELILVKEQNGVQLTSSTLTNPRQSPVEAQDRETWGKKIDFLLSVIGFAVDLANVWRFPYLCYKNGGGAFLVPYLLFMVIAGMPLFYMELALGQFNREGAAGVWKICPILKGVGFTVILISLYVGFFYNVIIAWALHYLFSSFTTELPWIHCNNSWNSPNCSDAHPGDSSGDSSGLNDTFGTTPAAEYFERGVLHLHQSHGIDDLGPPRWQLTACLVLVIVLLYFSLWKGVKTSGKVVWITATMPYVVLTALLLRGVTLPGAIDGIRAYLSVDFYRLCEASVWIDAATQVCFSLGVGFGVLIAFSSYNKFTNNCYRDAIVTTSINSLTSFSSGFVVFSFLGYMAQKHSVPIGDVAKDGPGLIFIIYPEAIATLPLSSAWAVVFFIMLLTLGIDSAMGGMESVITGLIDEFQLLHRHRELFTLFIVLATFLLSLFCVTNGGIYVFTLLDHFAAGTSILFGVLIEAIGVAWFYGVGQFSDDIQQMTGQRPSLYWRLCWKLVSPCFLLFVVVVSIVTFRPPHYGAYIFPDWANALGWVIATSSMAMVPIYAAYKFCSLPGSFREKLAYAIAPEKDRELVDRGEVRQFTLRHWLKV
How it was run: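 CHO-K1 cells stably expressing human dopamine transporter, exposed to compound at 10 μM or 1 μM in HEPES-buffered saline with 0.5% BSA. [3H]-dopamine uptake measured over 60 min by scintillation counting. Activity expressed relative to 100 μM nomifensine as 100%.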

Row | Compound | inhibition at 1 µM [1] [%] | inhibition at 1 µM ([2]; compound 1 μM) [%] | inhibition at 1 µM ([3]; compound 1 μM) [%] | inhibition at 10 µM [1] [%] | inhibition at 10 µM [2] [%] | inhibition at 10 µM [3] [%] | inhibitory rate (%) [1] [%] | inhibitory rate (%) ([2]; compound 1 μM) | inhibitory rate (%) ([3]; compound 1 μM)
1 | O=c1[nH]nc(-c2cccnc2O[C@@H]2CNCCO[C@H]2c2ccc(Cl)c(F)c2)[nH]1 [Example 558, 5-(2-{[(6R,7S)-7-(4-chloro-3-fluorophenyl)-1,4-oxazepan-6-yl]oxy}pyridin-3-yl)-2,4-dihydro-3H-1,2,4-triazol-3-one monohydrochloride] | 81 | 106 | 100 |  |  |  |  |  | 
2 | O=C1NCCCN1C[C@H]1OCCNC[C@H]1c1ccc(Cl)c(Cl)c1 [Example 545, 1-{[(6R,7S)-6-(3,4-dichlorophenyl)-1,4-oxazepan-7-yl]methyl}tetrahydropyrimidin-2(1H)-one monohydrochloride] | 94 | 108 | 81 |  |  |  |  |  | 
3 | O=c1[nH]c(-c2cccnc2OC2CNCCOC2c2ccc(Cl)c(Cl)c2)no1 (stereo not drawn) [Example 525, 3-(2-{[(6R*,7S*)-7-(3,4-dichlorophenyl)-1,4-oxazepan-yl]oxy}pyridin-3-yl)-1,2,4-oxadiazol-5(4H)-one monohydrochloride (retention time long)] | 97 | 104 | 98 |  |  |  |  |  | 
4 | O=C1CCCCN1C[C@@H]1CNCCO[C@H]1c1ccc(Cl)c(F)c1 [Example 376, 1-{[(6S,7R)-7-(4-chloro-3-fluorophenyl)-1,4-oxazepan-6-yl]methyl}piperidin-2-one monohydrochloride] | 98 | 102 | 89 |  |  |  |  |  | 
5 | NS(=O)(=O)NCC1(c2ccc(Cl)c(Cl)c2)CCNCCO1 (racemic) [Example 22, N-{[(7RS)-7-(3,4-dichlorophenyl)-1,4-oxazepan-7-yl]methyl}sulfamide monohydrochloride] | 82 | 97 | 25 | 98 | 99 | 63 |  |  | 
6 | CCOC(=O)[C@H]1NCCOC[C@@H]1c1ccc(Cl)c(Cl)c1 (racemic) [Example 412, ethyl (5RS,6SR)-6-(3,4-dichlorophenyl)-1,4-oxazepane-5-carboxylate monohydrochloride] | 8 | 86 | 83 |  |  |  |  |  | 

Now from value to molecule:

Row | inhibition at 1 µM [1] [%] | inhibition at 1 µM ([2]; compound 1 μM) [%] | inhibition at 1 µM ([3]; compound 1 μM) [%] | inhibition at 10 µM [1] [%] | inhibition at 10 µM [2] [%] | inhibition at 10 µM [3] [%] | inhibitory rate (%) [1] [%] | inhibitory rate (%) ([2]; compound 1 μM) | inhibitory rate (%) ([3]; compound 1 μM) | Compound
7 | 29 | 99 | 46 | 65 | 100 | 94 |  |  |  | OC[C@H]1OCCNC[C@H]1c1ccc(Cl)c(Cl)c1 (racemic) [Example 25, [(6RS,7SR)-6-(3,4-dichlorophenyl)-1,4-oxazepan-7-yl]methanol monohydrochloride]
8 | 91 | 103 | 32 |  |  |  |  |  |  | OC[C@H]1CNCCO[C@@H]1c1cc2ccccc2s1 (racemic) [Example 410, [(6RS,7SR)-7-(1-benzothiophen-2-yl)-1,4-oxazepan-6-yl]methanol monohydrochloride]
9 | 75 | 100 | 17 |  |  |  |  |  |  | Cc1cc(C2OCCNCC2CO)ccc1Cl (stereo not drawn) [Example 401, [(6R*,7S*)-7-(4-chloro-3-methylphenyl)-1,4-oxazepan-6-yl]methanol monohydrochloride (retention time short)]
10 | 80 | 101 | 20 |  |  |  |  |  |  | O=C(O)c1cccnc1NC[C@@H]1CNCCO[C@H]1c1ccc(Cl)c(Cl)c1 [Example 176, 2-({[(6S,7R)-7-(3,4-dichlorophenyl)-1,4-oxazepan-6-yl]methyl}amino)pyridine-3-carboxylic acid monohydrochloride]
11 | 99 | 101 | 99 |  |  |  |  |  |  | CNC(=O)N(CCO)C[C@@H]1CNCCO[C@H]1c1ccc(Cl)c(Cl)c1 [Example 160, 1-{[(6S,7R)-7-(3,4-dichlorophenyl)-1,4-oxazepan-6-yl]methyl}-1-(2-hydroxyethyl)-3-methylurea monohydrochloride]
12 |  | 105 | 10 |  |  |  | 93 |  |  | OCC1CNCCOC1c1ccc(Cl)c(F)c1 (stereo not drawn) [Example 440, [(6R*,7R*)-7-(4-chloro-3-fluorophenyl)-1,4-oxazepan-6-yl]methanol monohydrochloride (retention time short)]
13 | 97 | 96 | 86 |  |  |  |  |  |  | CS(=O)(=O)C[C@@H]1CNCCO[C@H]1c1ccc(Cl)c(Cl)c1 [Example 92, (6R,7R)-7-(3,4-dichlorophenyl)-6-[(methylsulfonyl)methyl]-1,4-oxazepane monohydrochloride]
14 |  |  |  |  |  |  | 51 | 103 | 6 | OCC1CNCCOC1c1ccc(Cl)c(F)c1 (stereo not drawn) [Example 441, [(6R*,7R*)-7-(4-chloro-3-fluorophenyl)-1,4-oxazepan-6-yl]methanol monohydrochloride (retention time long)]
15 | 65 | 95 | 31 |  |  |  |  |  |  | CS(=O)(=O)NC[C@H]1CNCCO[C@@H]1c1ccc(F)c(Cl)c1 (racemic) [Example 293, N-{[(6RS,7SR)-7-(3-chloro-4-fluorophenyl)-1,4-oxazepan-6-yl]methyl}methanesulfonamide monohydrochloride]
